Experimental data published in US11850234B2, “Enhancement of cancer treatment efficiency via the sphingosine-1-phosphate pathway” (priority 2017, dated 2023).

Columns and labels:
[1] = system: breast cancer metastatic cell line; settings: 10 μM of S1P co-administered; cited from earlier work
[2] = system: CAM-grafted pancreas, lung and ovarian tumors; experiment: Neoadjuvant effect in the CAM (Chicken Chorioallantoic Model) with grafted tumors; assay type: in vivo; settings: compared to CAM-grafted tumors not previously treated with the neoadjuvants
Procedure: The neoadjuvant effect of benzylphthalazine and imidazole derivatives according to the present invention are assessed for their neoadjuvant effect against pancreas, lung and ovarian tumors.
The neoadjuvant effect is evaluated using the CAM (Chicken Chorioallantoic Model) as described by Sliwinska et al. (Sliwinska et al., Angiogenesis, 2014, 14(4), 779-804).

[3] = system: pancreatic adenocarcinoma; experiment: Overall survival of pancreatic adenocarcinoma patients under gemcitabine chemotherapy, by plasmatic S1P concentration; assay type: in vivo, human

SMILES	effect on cytotoxicity of docetaxel, doxorubicin and cyclophosphamide [1]	cytotoxic effect against CAM-grafted tumors pretreated with neoadjuvant [2]	overall survival median ([3]; conventional gemcitabine chemotherapy, plasmatic S1P higher than 650 nM versus lower, FIG. 3)	overall survival ([3]; patients having a high plasmatic S1P concentration (>650 nM), FIG. 5)
CCCCCCCCCCCCC/C=C/[C@@H](O)[C@@H](N)COP(=O)(O)O [S1P, Sphingosine-1-phosphate]	increased the cytotoxicity	–	–	–
Nc1ccn([C@@H]2O[C@H](CO)[C@@H](O)C2(F)F)c(=O)n1 [gemcitabine]	–	enhanced	better overall survival median	12.3 months
CC(=O)O[C@H]1C(=O)[C@@]2(C)[C@H]([C@H](OC(=O)c3ccccc3)[C@]3(O)C[C@H](OC(=O)[C@H](O)[C@@H](NC(=O)c4ccccc4)c4ccccc4)C(C)=C1C3(C)C)[C@]1(OC(C)=O)CO[C@@H]1C[C@@H]2O [paclitaxel]	–	enhanced	–	–
